Measurements reported in US20130310379A1, “MODULATORS OF METHYL MODIFYING ENZYMES, COMPOSITIONS AND USES THEREOF” (CONSTELLATION PHARMACEUTICALS, priority 2010, published 2013).

Target: EZH2 (Homo sapiens, UniProt Q15910)
Assay: EZH2 assay: rPRC2 with biotinylated oligonucleosome substrates and 3H SAM, FlashPlate scintillation counting, IC50
Assay type: biochemical
Settings: rPRC2, biotinylated oligonucleosome substrates, 3H SAM; read-out: EZH2 IC50
Protocol: Assays were carried out by mixing rPRC2 together with biotinylated oligonucleosome substrates in the presence of the radio-labeled enzyme co-factor, S-adenosyl-L-methionine (^3H SAM) (Perkin Elmer) and monitoring the enzymatically mediated transfer of tritiated methyl groups from ^3H SAM to histone lysine residues. The amount of resulting tritated methylhistone product was measured by first capturing the biotinylated oligonuclesomes in streptavidin (SAV) coated FlashPlates (Perkin Elmer), followed by a wash step to remove un-reacted ^3H SAM, and then counting on a TopCount NXT 384 well plate scintillation counter (Perkin Elmer). The final assay conditions for EZH2 were as follows: 50 mM Tris Buffer pH 8.5, 1 mM DTT, 69 uM Brij-35 detergent, 5.0 mM MgCl2, 0.1 mg/mL BSA, 0.2 uM ^3H SAM, 0.2 uM biotinylated oligonucleosomes, 3.6 uM H3K27me3 peptide and 2 nM EZH2.
Compound IC50 measurements were obtained as follows: Compounds were first dissolved in 100% DMSO as 10 mM stock solutions. […] A 12.5 uL volume of the HMT enzyme, H3K27me3 peptide and oligonucleosome substrate in assay buffer was added to each well of the assay plate using a Multidrop Combi (ThermoFisher). Compounds were pre-incubated with the enzyme for 20 min, followed by initiation of the methyltransferase reaction by addition of 12.5 uL of 3H SAM in assay buffer (final volume=25 uL). The final concentrations of compounds ranged from a top default concentration of 80 uM down to 0.16 uM in ten 2-fold dilution steps. Reactions were carried out for 60 minutes and quenched with 20 uL per well of 1.96 mM SAH, 50 mM Tris PH 8.5, 200 mM EDTA. Stopped reactions were transferred to SAV coated Flashplates (Perkin Elmer), incubated for 120 min, washed with a plate washer, and then read on the TopCount NXT (1.0 min/well) to measure the amount of methylhistone product formed during the reaction. The amount of methylhistone product was compared with the amount of product formed in the 0% and 100% inhibition control wells allowing the calculation of % Inhibition in the presence of the individual compounds at various concentrations. IC50's were computed using a 4 parameter fit non-linear curve fitting software package (XLFIT, part of the database package, ActivityBase (IDBS)) where the four parameters were IC50, Hill slope, pre-transitional baseline (0% INH), and post-transitional baseline (100% INH); with the latter two parameters being fixed to zero and 100%, respectively, by default.

Chain of EZH2 (Q15910 whole entry): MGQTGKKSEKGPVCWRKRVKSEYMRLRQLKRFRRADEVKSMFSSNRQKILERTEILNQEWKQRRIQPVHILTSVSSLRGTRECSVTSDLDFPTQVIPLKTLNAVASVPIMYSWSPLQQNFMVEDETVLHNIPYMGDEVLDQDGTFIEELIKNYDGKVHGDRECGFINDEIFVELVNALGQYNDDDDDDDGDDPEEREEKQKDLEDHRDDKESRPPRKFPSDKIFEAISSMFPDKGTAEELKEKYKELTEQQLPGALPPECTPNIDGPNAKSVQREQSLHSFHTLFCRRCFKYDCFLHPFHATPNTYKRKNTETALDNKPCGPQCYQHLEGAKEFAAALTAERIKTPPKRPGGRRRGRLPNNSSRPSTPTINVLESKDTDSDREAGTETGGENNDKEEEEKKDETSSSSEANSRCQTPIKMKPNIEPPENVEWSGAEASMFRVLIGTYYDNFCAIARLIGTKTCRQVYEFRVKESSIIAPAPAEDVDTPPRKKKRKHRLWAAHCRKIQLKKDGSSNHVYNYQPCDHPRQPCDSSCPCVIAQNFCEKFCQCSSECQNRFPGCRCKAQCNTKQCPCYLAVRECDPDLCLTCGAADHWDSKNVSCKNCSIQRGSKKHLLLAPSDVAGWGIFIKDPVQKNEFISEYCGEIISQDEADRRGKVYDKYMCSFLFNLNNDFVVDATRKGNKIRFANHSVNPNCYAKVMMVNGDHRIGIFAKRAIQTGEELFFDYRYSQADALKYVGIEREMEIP
Chain of EZH2 (O75530 whole entry partner): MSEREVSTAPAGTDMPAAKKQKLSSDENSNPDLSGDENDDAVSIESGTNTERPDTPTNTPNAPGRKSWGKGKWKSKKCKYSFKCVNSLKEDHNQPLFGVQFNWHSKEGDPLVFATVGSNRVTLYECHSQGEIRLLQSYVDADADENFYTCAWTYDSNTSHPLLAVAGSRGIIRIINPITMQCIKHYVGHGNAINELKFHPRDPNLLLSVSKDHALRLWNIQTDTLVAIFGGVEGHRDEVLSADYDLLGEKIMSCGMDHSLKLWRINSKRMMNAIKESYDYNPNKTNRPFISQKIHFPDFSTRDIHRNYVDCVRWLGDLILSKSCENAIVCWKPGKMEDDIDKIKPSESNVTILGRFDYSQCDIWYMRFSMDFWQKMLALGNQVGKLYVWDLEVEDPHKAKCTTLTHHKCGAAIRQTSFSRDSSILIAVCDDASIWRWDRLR
Chain of EZH2 (Q15022 whole entry partner): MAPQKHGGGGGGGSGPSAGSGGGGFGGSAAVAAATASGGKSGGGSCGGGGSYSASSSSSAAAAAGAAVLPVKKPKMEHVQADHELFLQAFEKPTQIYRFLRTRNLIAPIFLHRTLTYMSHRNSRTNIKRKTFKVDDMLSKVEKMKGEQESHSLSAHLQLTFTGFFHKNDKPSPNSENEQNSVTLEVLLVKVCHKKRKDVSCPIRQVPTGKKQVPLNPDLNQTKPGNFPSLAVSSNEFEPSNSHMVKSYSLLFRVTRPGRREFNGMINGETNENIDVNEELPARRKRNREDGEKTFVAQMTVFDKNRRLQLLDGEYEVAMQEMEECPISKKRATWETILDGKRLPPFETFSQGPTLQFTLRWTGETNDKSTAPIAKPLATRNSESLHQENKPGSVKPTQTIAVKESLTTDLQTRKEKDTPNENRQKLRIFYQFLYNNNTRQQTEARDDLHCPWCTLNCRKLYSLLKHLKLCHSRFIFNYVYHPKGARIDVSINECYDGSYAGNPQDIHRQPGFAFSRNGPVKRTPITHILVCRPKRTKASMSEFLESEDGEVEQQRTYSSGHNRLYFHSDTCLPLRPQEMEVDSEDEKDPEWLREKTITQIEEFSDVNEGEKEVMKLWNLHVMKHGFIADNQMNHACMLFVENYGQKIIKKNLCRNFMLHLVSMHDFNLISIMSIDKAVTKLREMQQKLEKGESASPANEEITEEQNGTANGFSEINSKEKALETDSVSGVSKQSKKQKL

Structure (SMILES) | IC50 [µM]
Cc1ccc(CO)cc1Oc1ccc(C(=O)NC2CC(C)(C)NC(C)(C)C2)cc1 [Compound I-43] | 20 to 80
CC1(C)CC(NC(=O)c2ccc(COc3cccc4ncccc34)cc2)CC(C)(C)N1 [Compound I-190] | 5 to 20
CC1(C)CC(NC(=O)c2ccc(Oc3ccc4ncccc4c3)cc2)CC(C)(C)N1 [Compound I-172] | > 80
CC1(C)CC(NC(=O)c2ccc(N3CCOc4ccccc43)cc2)CC(C)(C)N1 [Compound I-440] | > 80
CC1(C)CC(NC(=O)c2ccc(Oc3ccc4[nH]ccc4c3)cc2)CC(C)(C)N1 [Compound I-82] | > 80
CC(C)CNC(=O)c1ccc(Oc2ccccc2)cc1 [Compound I-139] | > 80
CC1(C)CC(NC(=O)c2ccc(Oc3ccc(F)cc3C#N)c(Cl)c2)CC(C)(C)N1 [Compound I-359] | 5 to 20
CC1(C)CC(NC(=O)c2ccc(Oc3cccnc3C#N)cc2)CC(C)(C)N1 [Compound I-10] | 5 to 20
CC1(C)CC(NC(=O)c2ccc(OCC3CCCCN3)c(Cl)c2)CC(C)(C)N1 (centres unmarked) [Compound I-450] | > 80
COc1ccc(Oc2ccc(C(=O)NC3CC(C)(C)NC(C)(C)C3)cc2)cc1 [Compound I-97] | > 80
Cc1ccc(OCc2ccc(C(=O)NC3CC(C)(C)NC(C)(C)C3)cc2)nc1 [Compound I-70] | > 80
CC1(C)CC(NC(=O)c2ccccc2Oc2ccccc2)CC(C)(C)N1 [Compound I-95] | > 80
CC1CCCCC1Oc1ccc(C(=O)NC2CC(C)(C)NC(C)(C)C2)cc1 (centres unmarked) [Compound I-298] | > 80
CC1(C)CC(NC(=O)c2ccc(Oc3ccccc3Cl)cc2)CC(C)(C)N1 [Compound I-28] | 20 to 80
CC1(C)CC(NC(=O)c2ccc(Oc3ccc(O)cc3)cc2)CC(C)(C)N1 [Compound I-25] | 20 to 80
N#Cc1ccccc1Oc1ccc(C(=O)NC2CCN(CCN)CC2)cc1Cl [Compound I-460] | > 80
CC1(C)CC(NC(=O)c2ccc(Oc3ccccc3)cc2F)CC(C)(C)N1 [Compound I-203] | > 80
CC1(C)CC(NC(=O)Nc2ccc(C(C)(C)C)cc2Br)CC(C)(C)N1 [Compound I-143] | > 80
CC1(C)CC(NC(=O)c2ccc(COc3cccc(Br)c3)cc2)CC(C)(C)N1 [Compound I-8] | 5 to 20
CCCc1cc(C(=O)NC2CC(C)(C)NC(C)(C)C2)ccc1Oc1ccccc1C#N [Compound I-198] | < 5
Cc1ncccc1Oc1ccc(C(=O)NC2CC(C)(C)NC(C)(C)C2)cc1 [Compound I-20] | 5 to 20
Cc1ncccc1-c1cccc(Oc2ccc(C(=O)NC3CC(C)(C)NC(C)(C)C3)cc2Cl)c1C#N [Compound I-352] | < 5

Structure (SMILES) | IC50 [µM]
CC1(C)CC(NC(=O)c2ccc(Oc3ccccc3C#N)cn2)CC(C)(C)N1 [Compound I-205] | 5 to 20
CC1CC(NC(=O)c2ccc(Oc3ccccc3C#N)c(Cl)c2)CC(C)(C)N1 (centres unmarked) [Compound I-461] | 5 to 20
CC1(C)CC(NC(=O)c2ccc(Oc3ccccc3C#N)c(COc3ccccc3)c2)CC(C)(C)N1 [Compound I-239] | < 5
CC1(C)CC(NC(=O)c2ccc(COCc3ccccc3)cc2)CC(C)(C)N1 [Compound I-62] | 20 to 80
CC1(C)CC(NC(=O)c2ccc(Oc3ccncc3)c(Br)c2)CC(C)(C)N1 [Compound I-318] | 20 to 80
CC1(C)CC(NC(=O)c2ccc(Oc3ccccc3C#N)c(Cl)c2)CC(=O)N1 (centres unmarked) [Compound I-491] | > 80
CC1(C)CC(NC(=O)c2ccc(Oc3cccc(-c4cnc(N)nc4)c3C#N)c(Cl)c2)CC(C)(C)N1 [Compound I-538] | < 5
N#Cc1c(Oc2ccc(C(=O)NC3CCNCC3C#N)cc2Cl)cccc1-c1ccnnc1 (centres unmarked) [Compound I-329] | > 80
CC1(C)CC(NC(=O)c2ccc(Oc3ccccc3C#N)c(Cl)c2)CC(C)(C)C1 [Compound I-433] | > 80
Cc1nnc2n1-c1ccccc1C(c1ccc(C(=O)NC3CC(C)(C)NC(C)(C)C3)cc1)=NC2 [Compound I-488] | > 80
Cc1cc(-c2cccc(OCc3ccc(C(=O)NC4CC(C)(C)NC(C)(C)C4)cc3)c2)cnc1F [Compound I-27] | 20 to 80
CC1(C)CC(NC(=O)N2CCN(Cc3ccccc3C#N)C(=O)C2)CC(C)(C)N1 [Compound I-448] | > 80
CC1(C)CC(NC(=O)c2ccc(Oc3ccccc3CN)cc2)CC(C)(C)N1 [Compound I-273] | 20 to 80
CC1(C)CC(NC(=O)c2ccc(COc3cccc(N4CCNCC4)c3)cc2)CC(C)(C)N1 [Compound I-165] | > 80
CC1(C)CC(NC(=O)c2ccc(COc3cccc(C#N)c3)cc2)CC(C)(C)N1 [Compound I-76] | > 80
CC(c1ccccc1)c1ccc(C(=O)NC2CC(C)(C)NC(C)(C)C2)cc1 (centres unmarked) [Compound I-426] | > 80
O=C(NCCc1cccnc1)c1ccc(Oc2ccccc2)cc1 [Compound I-102] | > 80
CN(C)c1ccc(-c2cccc(Oc3ccc(C(=O)NC4CC(C)(C)NC(C)(C)C4)cc3Cl)c2C#N)cn1 [Compound I-557] | < 5
CC(O)c1ccccc1Oc1ccc(C(=O)NC2CC(C)(C)NC(C)(C)C2)cc1 (centres unmarked) [Compound I-287] | 20 to 80
Cc1cc(C(=O)NC2CC(C)(C)NC(C)(C)C2)ccc1Oc1cccc(CC#N)c1 [Compound I-345] | < 5
CN(c1ccccc1)c1ccc(C(=O)NC2CC(C)(C)NC(C)(C)C2)cc1 [Compound I-108, 4-(Methyl(phenyl)amino)-N-(2,2,6,6-tetramethylpiperidin-4-yl)benzamide] | > 80
CC1(C)CC(NC(=O)c2ccc(Oc3ccccc3-c3ccncc3)c(Cl)c2)CC(C)(C)N1 [Compound I-226] | < 5

Structure (SMILES) | IC50 [µM]
CC1(C)CC(NC(=O)c2cccc(COc3ccccc3)c2)CC(C)(C)N1 [Compound I-111] | > 80
CC1(C)CC(NC(=O)c2ccc(Oc3cccc(CN4CCOCC4)c3)cc2)CC(C)(C)N1 [Compound I-234] | > 80
CCc1cccc(Oc2ccc(C(=O)NC3CC(C)(C)NC(C)(C)C3)cc2)c1 [Compound I-131] | > 80
CC1(C)CC(NC(=O)c2ccc(Oc3ccccc3C#N)c(Cl)c2)CC(C)(C)N1CCO [Compound I-459] | < 5
CC1(C)CC(NC(=O)c2ccc(Oc3ccccc3)c(OCc3ccccc3)c2)CC(C)(C)N1 [Compound I-269] | 20 to 80
CC1(C)CC(NC(=O)c2ccc(Oc3cccc(N4CCOCC4)c3C#N)c(Cl)c2)CC(C)(C)N1 [Compound I-391] | < 5
CC1(C)CC(NC(=O)c2ccc3ccccc3c2)CC(C)(C)N1 [Compound I-137] | > 80
CNc1cccc(OCc2ccc(C(=O)NC3CC(C)(C)NC(C)(C)C3)cc2)n1 [Compound I-121, 4-(((6-(methylamino)pyridin-2-yl)oxy)methyl)-N-(2,2,6,6-tetramethylpiperidin-4-yl)benzamide] | > 80
CC1(C)CC(NC(=O)c2ccc(Oc3ccccc3-c3nn[nH]n3)c(Cl)c2)CC(C)(C)N1 [Compound I-313] | > 80
Cc1ccc(Oc2ccc(C(=O)NC3CC(C)(C)NC(C)(C)C3)cc2)cn1 [Compound I-89] | > 80
CN1CCC(N(C)C(=O)c2ccc(Oc3ccccc3)cc2)CC1 [Compound I-72] | > 80
CC(C)NCc1cccc(Oc2ccc(C(=O)NC3CC(C)(C)NC(C)(C)C3)cc2Cl)c1 [Compound I-422] | 20 to 80
Cc1cccc(Oc2ccc(C(=O)NC3CC(C)(C)NC(C)(C)C3)cc2Cl)c1-c1ccncc1 [Compound I-383] | 20 to 80
CC1(C)CC(NC(=O)c2ccc(CCc3ccccc3)cc2)CC(C)(C)N1 [Compound I-241] | > 80
CC1(C)CC(NC(=O)c2ccc(Oc3ccccc3C(=O)Nc3ccccc3)c(Cl)c2)CC(C)(C)N1 [Compound I-272] | 20 to 80
Cc1cc(C)cc(OCc2ccc(C(=O)NC3CC(C)(C)NC(C)(C)C3)cc2)c1 [Compound I-9] | 5 to 20
Cc1cc(Oc2ccccc2C#N)ccc1C(=O)NC1CC(C)(C)NC(C)(C)C1 [Compound I-243] | 20 to 80
CC1(C)CC(NC(=O)c2ccc(COc3ccccc3)c(Br)c2)CC(C)(C)N1 [Compound I-215] | 20 to 80
CC1(C)CC(NC(=O)c2ccc(Oc3cccc(NCC(N)=O)c3C#N)c(Cl)c2)CC(C)(C)N1 [Compound I-502] | < 5
CC1(C)CC(NC(=O)c2ccc3oc4c(C#N)cccc4c3c2)CC(C)(C)N1 [Compound I-187] | 20 to 80
Cc1cncc(-c2ccccc2Oc2ccc(C(=O)NC3CC(C)(C)NC(C)(C)C3)cc2Cl)c1 [Compound I-296] | < 5
